Type in all cases: biochemical
In assay [1] the target is T1, factor Xa (Homo sapiens, UniProt P00742).
T1 construct: human factor Xa samples; gift of Dr. T. Lindhout (University of Limburg, Maastricht)
Description: Kinetic parameters of hydrolysis of the substrates by factor Xa in buffer A at 37° C. (Example 4, Table 3). More on the design: key to Factor Xa kcat: NH: no hydrolysis. As to conditions: for Factor Xa kcat / Factor Xa kcat /Km / Km: buffer A, 37° C., 50 nM factor Xa. The method, then: (§1) Kinetic parameters: The hydrolysis experiments were run in buffer A at 37° C. The liberation of p-nitroaniline was monitored at 405 nm in a dual wavelength (405-546 nm) spectrophotometer made in our workshop, using a personal computer for data recording. In a polystyrene microcuvette (total volume 500 μL), buffer A and substrate solution were added to obtain a final substrate concentration between 200 to 2000 μM. After 5 min of incubation at 37° C., enzyme solution was added to achieve a final concentration between 0.5 to 50 nM. The measurement was carried out at 37° C. in a thermostated cuvette-holder. The Michaelis constant (Km) and the catalytic constant (kcat) were obtained by measuring the initial reaction velocities at different substrate concentrations. The data obtained were fitted by linear regression on the Michaelis-Menten equation.
(§2) Kinetic parameters: The Km and kcat values for each substrate were determined at an enzyme concentration of 0.5-50 nM (thrombin) and 50 nM factor Xa. From the initial reaction velocities, measured for at least six substrate concentrations between 200 and 2000 μM, the Km and kcat values were calculated by linear regression on the Michaelis-Menten curve. Table 3 gives an overview of the kinetic parameters of the different substrates hydrolyzed by thrombin and by factor Xa in buffer A.

The target in assay [2] is thrombin (Homo sapiens, UniProt P00734). Description: Kinetic parameters of hydrolysis of the substrates by thrombin in buffer A at 37° C. (Example 4, Table 3). The arrangement: Pure human α-thrombin; gift of Dr. T. Lindhout (University of Limburg, Maastricht); key to Thrombin kcat: NH: no hydrolysis. As to conditions: for Km / Thrombin kcat / Thrombin kcat /Km: buffer A, 37° C. The method, then:
as §1, §2

Assay [3] concerns the target T2, human α-thrombin (Homo sapiens, UniProt P00734).
T2 construct: Pure human α-thrombin; gift of Dr. T. Lindhout (University of Limburg, Maastricht)
Description: Kinetics of hydrolysis of substrates by human α-thrombin in buffer A at 37° C. (Example 2, Table 1). The arrangement: key to kcat: NH: not hydrolyzed by thrombin. How it is done:
as §1, with “between 1” for “between 200”, “to 100” for “to 50”, “measuring” for “measuring the”
(§3) Kinetic parameters: In a preliminary experiment, the substrate was hydrolyzed under the following conditions: enzyme concentration: 10 to 20 nM, substrate concentration: 200 μM in buffer A to get an impression of the initial velocity. […] The results are given in table 1 and 2 for thrombin and factor Xa respectively. The Km and kcat for each substrate were determined from the initial velocities measured for at least six substrate concentrations in the concentration range as given. The enzyme concentration used gives a good signal to noise ratio. The data given are obtained from one or two experiments. The data from table 1 and 2 were only used as the first selection criterion to get a rough impression of the hydrolysis behaviour. Notwithstanding the preliminary character of the measurement it was helpful in the design of the substrates of our interest.

Assay [4] has as its target T1, factor Xa. Put plainly: Kinetics of hydrolysis of substrates by human factor Xa in buffer A at 37° C. (Example 2, Table 2). More on the design: key to kcat: NH: not hydrolyzed by factor Xa. How it is done: as §1, with “between 1” for “between 200”, “to 100” for “to 50”, “measuring” for “measuring the”
as §3

These results are taken from patent US6207399A, “Methods of determining endogenous thrombin potential (ETP) and thrombin substrates for use in said methods” (Hemker; Hendrik Coenraad, priority 1995, dated 2001).

By Km is commonly meant the concentration of substrate that gives half-maximal velocity. The kcat is the maximal rate divided by the concentration of active sites.

SMILES strings stand for the structures. Square brackets hold non-standard residues; d marks the D form. Peptide text beside a SMILES is read from it. * marks the point of attachment. pNA = O=[N+]([O-])c1ccc(N*)cc1; Pip = O=C(O)[C@@H]1CCCCN1; Nle = CCCC[C@H](N)C(=O)O; Orn = NCCC[C@H](N)C(=O)O

T1 sequence (P00742 41-179 limits assumed): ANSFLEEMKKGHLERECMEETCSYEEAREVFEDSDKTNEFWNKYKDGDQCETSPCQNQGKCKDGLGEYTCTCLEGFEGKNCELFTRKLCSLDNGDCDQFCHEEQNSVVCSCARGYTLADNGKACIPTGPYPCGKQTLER
T1 sequence (P00742 235-488 limits assumed): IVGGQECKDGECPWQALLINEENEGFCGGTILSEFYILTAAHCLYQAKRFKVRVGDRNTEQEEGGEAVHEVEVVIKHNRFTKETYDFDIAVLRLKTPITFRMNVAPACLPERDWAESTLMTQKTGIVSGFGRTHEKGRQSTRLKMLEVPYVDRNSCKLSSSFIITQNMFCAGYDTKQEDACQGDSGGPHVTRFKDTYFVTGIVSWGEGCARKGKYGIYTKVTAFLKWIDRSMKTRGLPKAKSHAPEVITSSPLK

As to `CC(C)[C@H](NC(=O)[C@@H](N)CCC(=O)O)C(=O)N[C@@H](CCCNC(=N)N)C(=O)Nc1ccc([N+](=O)[O-])cc1.Cl.Cl` [2HCl.H-Glu-Val-Arg-pNA] (H-Glu-Val-Arg-pNA), in assay [1], the “Factor Xa kcat” value was 1.07 s⁻¹, the “Factor Xa kcat /Km” value turned out to be 709 M/s and the Michaelis-Menten constant (Km) turned out to be 1510 µM. Further, in assay [2], the Km worked out at 932 µM, the Thrombin kcat amounted to 1.44 s⁻¹ and the “Thrombin kcat /Km” value is 1540 M/s.

As for `CC(C)[C@H](NC(=O)CNC(=O)[C@@H]1CCCN1C(=O)CNC(=O)[C@@H](N)CCC(=O)O)C(=O)N[C@@H](CCCNC(=N)N)C(=O)Nc1ccc([N+](=O)[O-])cc1` [2HCl.H-EGPGVR-pNA, 2HCl.H-Glu-Gly-Pro-Gly-Val-Arg-pNA] (H-EGPGVR-pNA), in assay [1], the “Factor Xa kcat” value is 3.41 s⁻¹, the “Factor Xa kcat /Km” value amounted to 1560 M/s and the Km turned out to be 2190 µM. In assay [2], the Km came out at 1070 µM, the Thrombin kcat was found to be 9.07 s⁻¹ and the “Thrombin kcat /Km” value is 8440 M/s.

Turning to `COC(=O)CC(=O)N[C@H](C)C(=O)N[C@@H](CCCNC(=N)N)C(=O)Nc1ccc([N+](=O)[O-])cc1.Cl` [MZ-D-Ala-Arg-pNA.HCl], in assay [3], the Km was found to be 1330 µM, the catalytic constant (kcat) was found to be 0.059 s⁻¹ and the “kcat /Km” value was 44.4 M/s. In assay [4], the Michaelis-Menten constant (Km) came to 3080 µM, the kcat was 0.088 s⁻¹ and the “kcat /Km” value is 28.5 M/s.

In the case of `CCC(CC)(C(=O)NCC(=O)N[C@@H](CCCNC(=N)N)C(=O)Nc1ccc([N+](=O)[O-])cc1)C(=O)OC.Cl` [DEMZ-Gly-Arg-pNA.HCl], in assay [3], the Km was found to be 866 µM, the kcat amounted to 1.73 s⁻¹ and the “kcat /Km” value was found to be 1990 M/s. In assay [4], the Km stood at 2320 µM, the kcat worked out at 4.54 s⁻¹ and the “kcat /Km” value is 1960 M/s.

`CC(C)[C@H](NC(=O)OCCS(C)(=O)=O)C(=O)N[C@@H](CCCN)C(=O)Nc1ccc([N+](=O)[O-])cc1.Cl` [Msc-Val-Orn-pNA.HCl]: the “Factor Xa kcat” value in assay [1] is on record as “NH”. In addition, in assay [2], the Thrombin kcat result is “NH”.

For the molecule `CCCC[C@H](NC(=O)[C@@H](NC(=O)OCCS(C)(=O)=O)C(C)C)C(=O)Nc1ccc([N+](=O)[O-])cc1` [Msc-Val-Nle-pNA], the “Factor Xa kcat” value in assay [1] is listed as “NH”. Also, in assay [2], the Thrombin kcat result is reported as “NH”.

As to `CC(C)C(N)C(=O)NC(CCCCN)C(=O)Nc1ccc([N+](=O)[O-])cc1.Cl.Cl` (stereo not drawn) [2HCl.H-Val-Lys-pNA], the “Factor Xa kcat” value in assay [1] is given as “NH”. For the same molecule, the Thrombin kcat entry in assay [2] is listed as “NH”.

For the molecule `NC(N)=NCCC[C@H](NC(=O)[C@@H]1CCCCN1C(=O)[C@H](N)Cc1ccccc1)C(=O)Nc1ccc([N+](=O)[O-])cc1` [2HCl.H-D-Phe-Pip-Arg-pNA], in assay [3], the Km stood at 5.62 µM, the kcat amounted to 236.5 s⁻¹ and the “kcat /Km” value was found to be 4.21e+07 M/s. Besides, in assay [4], the Km is 174 µM, the kcat was 7.49 s⁻¹ and the “kcat /Km” value was found to be 42900 M/s.

`COC(=O)CC(=O)N[C@@H](C)C(=O)N[C@@H](CCCNC(=N)N)C(=O)Nc1ccc([N+](=O)[O-])cc1.Cl` [MZ-Ala-Arg-pNA.HCl]: in assay [3], the Km amounted to 1540 µM, the kcat was 107.5 s⁻¹ and the “kcat /Km” value stood at 69900 M/s. For the same molecule, in assay [4], the Km turned out to be 5590 µM, the kcat stood at 51.7 s⁻¹ and the “kcat /Km” value came to 9250 M/s.

Turning to `CC(C)[C@H](NC(=O)CNC(=O)CNC(=O)[C@@H]1CCCN1C(=O)[C@@H](N)CCC(=O)O)C(=O)N[C@@H](CCCNC(=N)N)C(=O)Nc1ccc([N+](=O)[O-])cc1` [2HCl.H-EPGGVR-pNA, 2HCl.H-Glu-Pro-Gly-Gly-Val-Arg-pNA] (H-EPGGVR-pNA), in assay [1], the “Factor Xa kcat” value was found to be 0.45 s⁻¹, the “Factor Xa kcat /Km” value was found to be 468 M/s and the Km amounted to 961 µM. Besides, the Thrombin kcat result in assay [2] is given as “NH”.

For `Cl.Cl.NCCCC[C@H](NC(=O)[C@@H]1CCCCN1C(=O)[C@H](N)Cc1ccccc1)C(=O)Nc1ccc([N+](=O)[O-])cc1` [2HCl.H-D-Phe-Pip-Lys-pNA] (H-[dF]-[Pip]-Lys-pNA), in assay [3], the Km is 65.1 µM, the catalytic constant (kcat) was found to be 118.3 s⁻¹ and the “kcat /Km” value was 1.82e+06 M/s. Further, in assay [4], the Km was determined as 963 µM, the kcat is 0.61 s⁻¹ and the “kcat /Km” value came out at 631 M/s.

For the molecule `COC(=O)C(C)C(=O)NC(C)C(=O)NC(CCCNC(=N)N)C(=O)Nc1ccc([N+](=O)[O-])cc1.Cl` (mixture of isomers) [MMZ-Ala-Arg-pNA.HCl], in assay [3], the Michaelis constant (Km) came to 666 µM, the kcat was found to be 16.5 s⁻¹ and the “kcat /Km” value came to 24800 M/s. Also, in assay [4], the Km came out at 7050 µM, the kcat came out at 40.6 s⁻¹ and the “kcat /Km” value came out at 5750 M/s.

As for `Cl.Cl.N=C(N)NCCC[C@H](NC(=O)[C@@H]1CCCN1C(=O)[C@H](N)Cc1ccccc1)C(=O)Nc1ccc([N+](=O)[O-])cc1` [2HCl.H-D-Phe-Pro-Arg-pNA], in assay [3], the Km worked out at 3.16 µM, the kcat turned out to be 28.4 s⁻¹ and the “kcat /Km” value worked out at 8.99e+06 M/s. In addition, in assay [4], the Km stood at 693 µM, the kcat came out at 18.7 s⁻¹ and the “kcat /Km” value amounted to 26900 M/s.

As for `CC(C)[C@H](NC(=O)OCCS(C)(=O)=O)C(=O)N[C@@H](CCCCN)C(=O)Nc1ccc([N+](=O)[O-])cc1.Cl` [Msc-Val-Lys-pNA.HCl], in assay [1], the “Factor Xa kcat” value was “NH”. In addition, the Thrombin kcat entry in assay [2] is recorded as “NH”.

`CC(C)[C@H](NC(=O)CN)C(=O)N[C@@H](CCCN)C(=O)Nc1ccc([N+](=O)[O-])cc1.Cl.Cl` [2HCl.H-Gly-Val-Orn-pNA] (H-Gly-Val-[Orn]-pNA): in assay [1], the “hydrolysis by Factor Xa (text on Table 3)” value is on record as “hydrolysed by neither thrombin nor Factor Xa” and the “Factor Xa kcat” value is “NH”. In assay [2], the “hydrolysis by thrombin (text on Table 3)” value is listed as “hydrolysed by neither thrombin nor Factor Xa” and the Thrombin kcat result was “NH”.

Take `Cl.N=C(N)NCCC[C@H](NC(=O)CNS(=O)(=O)c1ccc2ccccc2c1)C(=O)Nc1ccc([N+](=O)[O-])cc1` [βNS-Gly-Arg-pNA.HCl]: the kcat result in assay [3] is given as “NH”. Also, in assay [4], the Km is 116 µM, the kcat is 2.00 s⁻¹ and the “kcat /Km” value was determined as 17300 M/s.

As to `COC(=O)CC(=O)N[C@@H](C(=O)N[C@@H](CCCNC(=N)N)C(=O)Nc1ccc([N+](=O)[O-])cc1)C(C)C.Cl` [MZ-D-Val-Arg-pNA.HCl], in assay [3], the Km is 1310 µM, the kcat stood at 0.146 s⁻¹ and the “kcat /Km” value came out at 111 M/s. Moreover, in assay [4], the Km came out at 1820 µM, the kcat was 0.13 s⁻¹ and the “kcat /Km” value stood at 69.5 M/s.

Consider `COC(=O)C(C)(C)C(=O)N[C@@H](C)C(=O)N[C@@H](CCCNC(=N)N)C(=O)Nc1ccc([N+](=O)[O-])cc1.Cl` [DMMZ-Ala-Arg-pNA.HCl], for which, in assay [3], the Km worked out at 565 µM, the kcat worked out at 4.08 s⁻¹ and the “kcat /Km” value worked out at 7220 M/s. Also, in assay [4], the Michaelis-Menten constant (Km) was 2240 µM, the kcat amounted to 11.04 s⁻¹ and the “kcat /Km” value was 4930 M/s.

For `CCCC[C@H](NC(=O)[C@@H]1CCCCN1C(=O)[C@H](N)Cc1ccccc1)C(=O)Nc1ccc([N+](=O)[O-])cc1.Cl` [HCl.H-D-Phe-Pip-Nle-pNA] (H-[dF]-[Pip]-[Nle]-pNA), in assay [3], the Km stood at 943 µM, the kcat amounted to 11.4 s⁻¹ and the “kcat /Km” value was found to be 12100 M/s. The kcat entry in assay [4] is “NH”.
